The record followed here is patent US20230139171A1 (SITA Information Networking Computing UK Limited, priority 2019, published 2023).

pIC50: −log10 of the molar value.

What all share (assay type): cell-based
The target of one assay is T1, human TLR9 (Homo sapiens, UniProt Q9NR96).
T1 construct: host or cells: HEK-Blue cells
T1 sequence (Q9NR96 26-1032): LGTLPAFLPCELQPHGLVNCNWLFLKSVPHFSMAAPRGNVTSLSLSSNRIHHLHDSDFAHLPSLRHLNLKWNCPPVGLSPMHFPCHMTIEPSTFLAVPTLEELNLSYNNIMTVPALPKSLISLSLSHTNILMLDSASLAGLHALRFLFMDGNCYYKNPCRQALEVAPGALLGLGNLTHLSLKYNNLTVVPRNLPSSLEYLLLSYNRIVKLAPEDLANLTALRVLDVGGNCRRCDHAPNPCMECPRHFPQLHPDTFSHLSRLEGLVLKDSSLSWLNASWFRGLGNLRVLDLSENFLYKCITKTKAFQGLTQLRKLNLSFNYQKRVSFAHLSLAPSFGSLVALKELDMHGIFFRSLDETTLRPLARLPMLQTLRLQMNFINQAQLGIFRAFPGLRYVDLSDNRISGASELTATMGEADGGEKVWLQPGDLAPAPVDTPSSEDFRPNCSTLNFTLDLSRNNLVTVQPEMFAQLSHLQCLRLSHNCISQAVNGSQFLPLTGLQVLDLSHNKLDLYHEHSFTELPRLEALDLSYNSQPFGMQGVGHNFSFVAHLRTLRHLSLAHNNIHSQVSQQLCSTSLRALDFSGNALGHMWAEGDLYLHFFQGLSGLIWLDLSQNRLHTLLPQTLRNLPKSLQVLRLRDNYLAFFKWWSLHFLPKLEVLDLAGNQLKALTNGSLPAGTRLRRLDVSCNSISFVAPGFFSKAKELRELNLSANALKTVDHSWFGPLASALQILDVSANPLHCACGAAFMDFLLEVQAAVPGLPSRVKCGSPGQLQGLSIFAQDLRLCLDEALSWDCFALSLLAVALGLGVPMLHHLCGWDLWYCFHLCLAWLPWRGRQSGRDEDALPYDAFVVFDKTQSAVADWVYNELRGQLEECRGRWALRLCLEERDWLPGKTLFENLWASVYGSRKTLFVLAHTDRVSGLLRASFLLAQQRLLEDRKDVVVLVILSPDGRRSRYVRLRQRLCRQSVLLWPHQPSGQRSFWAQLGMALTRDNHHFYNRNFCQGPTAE
Briefly: TLR9 inhibition reporter assay (HEK-Blue cells, SEAP reporter, ODN2006 stimulation). The following applies: HEK-Blue cells overexpressing human TLR9, SEAP reporter, ODN2006 5 nM. In a few lines: (§1)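 HEK-Blue cells overexpressing human TLR7, TLR8 or TLR9 carry a SEAP reporter driven by NF-κB/AP-1 sites. Compounds (0.05 nM–50 μM) were preincubated 30 min at room temperature, then cells were stimulated with gardiquimod 7.5 μM (TLR7), R848 15.9 μM (TLR8) or ODN2006 5 nM (TLR9) for 22 h at 37 °C.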
A general note: A reporter such as luciferase makes a cellular process visible.

For a further assay, the target named is T2, human TLR7 (Homo sapiens, UniProt Q9NYK1).
T2 construct: host or cells: HEK-Blue cells
T2 sequence (Q9NYK1 27-1049): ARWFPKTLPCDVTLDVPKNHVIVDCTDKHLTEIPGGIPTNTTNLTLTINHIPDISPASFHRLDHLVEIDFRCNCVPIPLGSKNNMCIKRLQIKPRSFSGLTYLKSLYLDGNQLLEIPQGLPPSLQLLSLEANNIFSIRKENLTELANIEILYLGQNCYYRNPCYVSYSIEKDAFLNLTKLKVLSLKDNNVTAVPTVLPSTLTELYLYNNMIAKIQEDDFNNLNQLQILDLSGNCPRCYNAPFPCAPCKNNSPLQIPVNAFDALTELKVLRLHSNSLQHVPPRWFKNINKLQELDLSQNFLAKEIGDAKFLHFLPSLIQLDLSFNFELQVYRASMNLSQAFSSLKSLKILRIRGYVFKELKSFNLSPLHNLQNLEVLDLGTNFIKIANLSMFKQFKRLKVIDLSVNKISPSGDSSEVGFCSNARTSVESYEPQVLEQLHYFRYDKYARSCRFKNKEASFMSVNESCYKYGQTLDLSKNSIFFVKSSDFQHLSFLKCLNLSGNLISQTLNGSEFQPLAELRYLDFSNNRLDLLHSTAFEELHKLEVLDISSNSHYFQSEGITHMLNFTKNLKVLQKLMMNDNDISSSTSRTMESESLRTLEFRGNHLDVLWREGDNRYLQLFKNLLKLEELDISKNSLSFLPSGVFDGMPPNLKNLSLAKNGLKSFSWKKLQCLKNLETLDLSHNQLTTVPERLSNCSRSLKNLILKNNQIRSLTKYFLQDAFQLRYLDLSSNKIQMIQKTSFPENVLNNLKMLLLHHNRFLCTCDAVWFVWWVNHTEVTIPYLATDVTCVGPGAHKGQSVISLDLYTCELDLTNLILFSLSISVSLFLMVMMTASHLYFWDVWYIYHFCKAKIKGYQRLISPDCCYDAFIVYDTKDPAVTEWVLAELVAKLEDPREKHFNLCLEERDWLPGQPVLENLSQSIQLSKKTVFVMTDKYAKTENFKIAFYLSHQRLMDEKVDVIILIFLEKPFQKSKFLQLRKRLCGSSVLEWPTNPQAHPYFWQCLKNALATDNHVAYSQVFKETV
The experiment in a line: TLR7 inhibition reporter assay (HEK-Blue cells, SEAP reporter, gardiquimod stimulation). The following applies: HEK-Blue cells overexpressing human TLR7, SEAP reporter, gardiquimod 7.5 μM; read-out: TLR7 IC50. In a few lines:
as §1

For the next assay, the target named is T3, human TLR8 (Homo sapiens, UniProt Q9NR97).
T3 construct: host or cells: HEK-Blue cells
T3 sequence (Q9NR97 27-1041): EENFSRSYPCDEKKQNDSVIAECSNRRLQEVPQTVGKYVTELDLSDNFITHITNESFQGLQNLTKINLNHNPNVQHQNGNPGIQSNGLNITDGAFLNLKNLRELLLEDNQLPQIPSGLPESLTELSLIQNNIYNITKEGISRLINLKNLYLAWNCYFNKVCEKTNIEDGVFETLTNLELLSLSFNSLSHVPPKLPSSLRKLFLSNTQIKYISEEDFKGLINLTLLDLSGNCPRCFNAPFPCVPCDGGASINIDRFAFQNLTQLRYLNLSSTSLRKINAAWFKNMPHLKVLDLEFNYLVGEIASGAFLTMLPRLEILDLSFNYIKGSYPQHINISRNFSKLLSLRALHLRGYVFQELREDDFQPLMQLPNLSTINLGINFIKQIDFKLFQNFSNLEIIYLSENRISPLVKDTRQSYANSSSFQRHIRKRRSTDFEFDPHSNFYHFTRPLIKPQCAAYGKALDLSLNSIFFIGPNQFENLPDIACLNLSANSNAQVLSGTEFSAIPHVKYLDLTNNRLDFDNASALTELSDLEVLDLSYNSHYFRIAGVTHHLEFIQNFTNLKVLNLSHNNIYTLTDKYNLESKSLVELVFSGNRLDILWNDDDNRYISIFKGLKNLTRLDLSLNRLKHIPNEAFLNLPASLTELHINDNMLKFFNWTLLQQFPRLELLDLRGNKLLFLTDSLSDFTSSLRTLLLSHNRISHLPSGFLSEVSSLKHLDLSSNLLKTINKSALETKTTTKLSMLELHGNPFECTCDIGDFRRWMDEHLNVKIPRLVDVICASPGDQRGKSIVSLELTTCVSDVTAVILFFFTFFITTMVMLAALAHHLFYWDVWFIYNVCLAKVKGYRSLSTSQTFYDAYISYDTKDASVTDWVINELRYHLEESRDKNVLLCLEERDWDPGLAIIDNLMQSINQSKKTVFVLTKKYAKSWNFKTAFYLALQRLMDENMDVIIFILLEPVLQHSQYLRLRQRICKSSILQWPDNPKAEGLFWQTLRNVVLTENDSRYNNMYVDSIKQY
Briefly: TLR8 inhibition reporter assay (HEK-Blue cells, SEAP reporter, R848 stimulation). The following applies: HEK-Blue cells overexpressing human TLR8, SEAP reporter, R848 15.9 μM; read-out: TLR8 IC50. In a few lines: as §1

A word on the pIC50: it is the negative decadic logarithm of the IC50, by convention in mol/L. Take `Cc1c(-c2[nH]c3sc(C4CCC(NC(C)C)CC4)nc3c2C(C)C)cn2ncnc2c1C` (single isomer, unassigned) [Example 195, 4-(5-(7,8-dimethyl-[1,2,4]triazolo[1,5-a]pyridin-6-yl)-6-isopropyl-4H-pyrrolo[3,2-d]thiazol-2-yl)-N-isopropylcyclohexan-1-amine]: the pIC50 at human TLR9 was 5.26; at human TLR7 it was 8.65; at human TLR8, 8.78.
For the compound `CNCC(=O)N1C[C@H](C)N(c2nc3c(C(C)C)c(-c4cn5ncnc5c(C)c4C)[nH]c3s2)C[C@H]1C` [Example 340, 1-((2R,5S)-4-(5-(7,8-dimethyl-[1,2,4]triazolo[1,5-a]pyridin-6-yl)-6-isopropyl-4H-pyrrolo[3,2-d]thiazol-2-yl)-2,5-dimethylpiperazin-1-yl)-2-(methylamino)ethan-1-one], the figures for the pIC50 on human TLR9, at human TLR7 and at human TLR8 were 5.28, 8.33 and 8.47, respectively.
With `Cc1c(-c2[nH]c3sc(C4CCN(CC5CC5)CC4)nc3c2C(C)C)cn2ncnc2c1C` [Example 53, 2-(1-(cyclopropylmethyl)piperidin-4-yl)-5-(7,8-dimethyl-[1,2,4]triazolo[1,5-a]pyridin-6-yl)-6-isopropyl-4H-pyrrolo[3,2-d]thiazole], the pIC50 against human TLR9 is 5.29; on human TLR7, 9.03; on human TLR8, 9.10.
For `Cc1c(-c2[nH]c3sc(C4CCC(N5CCOCC5)CC4)nc3c2C(C)C)cn2ncnc2c1C` (single isomer, unassigned) [Example 212, 4-(4-(5-(7,8-dimethyl-[1,2,4]triazolo[1,5-a]pyridin-6-yl)-6-isopropyl-4H-pyrrolo[3,2-d]thiazol-2-yl)cyclohexyl) morpholine], in that order: 5.13, 9.21 and 9.20.
In the same order, the values of `Cc1cc(-c2[nH]c3sc(C4CCN(CC(=O)N(C)C)CC4)nc3c2C(C)C)cn2ncnc12` [Example 17, 2-(4-(6-isopropyl-5-(8-methyl-[1,2,4]triazolo[1,5-a]pyridin-6-yl)-4H-pyrrolo[3,2-d]thiazol-2-yl)piperidin-1-yl)-N,N-dimethylacetamide] are 5.46, 8.09 and 8.08.
For `Cc1c(-c2[nH]c3sc(C(=O)NC4CCC(N(C)C)CC4)nc3c2C(C)C)cn2ncnc2c1C` (single isomer, unassigned) [Example 369, 5-(7,8-dimethyl-[1,2,4]triazolo[1,5-a]pyridin-6-yl)-N-(4-(dimethylamino)cyclohexyl)-6-isopropyl-4H-pyrrolo[3,2-d]thiazole-2-carboxamide], the pIC50 is 4.33 on human TLR9, 7.74 at human TLR7 and 7.48 on human TLR8.
For the compound `COc1cc(-c2[nH]c3sc(C4CCC(NC5COC5)CC4)nc3c2C)cn2ncnc12` (single isomer, unassigned) [Example 273, N-(4-(5-(8-methoxy-[1,2,4]triazolo[1,5-a]pyridin-6-yl)-6-methyl-4H-pyrrolo[3,2-d]thiazol-2-yl)cyclohexyl)oxetan-3-amine], the pIC50 was 5.26 against human TLR9, 7.86 on human TLR7 and 7.58 at human TLR8.
`CNCC(=O)N1CCN(c2nc3c(C(C)C)c(-c4cn5ncnc5c(C)c4C)[nH]c3s2)[C@H](C)C1` [Example 326, (R)-1-(4-(5-(7,8-dimethyl-[1,2,4]triazolo[1,5-a]pyridin-6-yl)-6-isopropyl-4H-pyrrolo[3,2-d]thiazol-2-yl)-3-methylpiperazin-1-yl)-2-(methylamino)ethan-1-one]: the pIC50 against human TLR9 is 4.75; at human TLR7, 8.27; at human TLR8 it was 8.10.
Turning to `Cc1c(-c2[nH]c3sc(C4CCC(N5CC(O)C5)CC4)nc3c2C(C)C)cn(C)c(=O)c1C` (single isomer, unassigned) [Example 263, 5-(2-(4-(3-hydroxyazetidin-1-yl)cyclohexyl)-6-isopropyl-4H-pyrrolo[3,2-d]thiazol-5-yl)-1,3,4-trimethylpyridin-2(1H)-one], the figures for the pIC50 at human TLR9, at human TLR7 and on human TLR8 were 4.74, 8.32 and 8.35, respectively.
`COc1cc(-c2[nH]c3sc(C4CCC(NC56CC(C5)C6)CC4)nc3c2C(C)C)cn2ncnc12` (single isomer, unassigned) [Example 169, N-(4-(6-isopropyl-5-(8-methoxy-[1,2,4]triazolo[1,5-a]pyridin-6-yl)-4H-pyrrolo[3,2-d]thiazol-2-yl)cyclohexyl)bicyclo[1.1.1]pentan-1-amine]: the pIC50 against human TLR9 is 5.01; at human TLR7 it was 8.38; at human TLR8, 7.77.
`COc1cc(-c2[nH]c3sc(C4CCC(NC5(C)CCC5)CC4)nc3c2C(C)C)cn2ncnc12` (single isomer, unassigned) [Example 109, 4-(6-isopropyl-5-(8-methoxy-[1,2,4]triazolo[1,5-a]pyridin-6-yl)-4H-pyrrolo[3,2-d]thiazol-2-yl)-N-(1-methylcyclobutyl) cyclohexan-1-amine]: the pIC50 on human TLR9 is 5.22; at human TLR7 it was 8.17; on human TLR8, 7.55.
